Experimental data from patent publication US5156956A, “Transgultaminase” (Ajinomoto Co., Inc., priority 1987, dated 1992).
Like-named read-outs stand apart in the source and are kept apart here. Residues, ends and D or L forms follow the SMILES beside them. *: point of attachment. Cbz = O=C(OCc1ccccc1)*

Key:
BTG-1 [1] = target: T1, BTG-1 (Streptomyces mobaraensis, UniProt P81453); assay: Substrate specificity: synthetic substrates with hydroxylamine; format: biochemical, Streptoverticillium mobaraense IFO 13819
T1 construct: BTGase is dissolved in the culture solution and can be harvested from the culture filtrate; endogenous in cells; host or cells: Streptoverticillium mobaraense IFO 13819 (natural producer; purified from culture filtrate)
T1 sequence (P81453 77-407): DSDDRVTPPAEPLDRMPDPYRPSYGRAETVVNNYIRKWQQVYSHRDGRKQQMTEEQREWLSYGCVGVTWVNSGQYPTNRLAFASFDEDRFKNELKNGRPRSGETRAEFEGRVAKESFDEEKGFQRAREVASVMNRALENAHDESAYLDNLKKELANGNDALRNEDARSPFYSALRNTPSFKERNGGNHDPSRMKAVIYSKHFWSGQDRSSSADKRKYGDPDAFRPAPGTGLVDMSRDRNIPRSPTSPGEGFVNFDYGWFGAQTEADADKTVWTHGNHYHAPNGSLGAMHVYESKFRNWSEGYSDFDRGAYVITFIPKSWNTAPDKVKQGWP
Method: (§1) Measurement of the activity of BTGase is carried out by performing a reaction using benzyloxycarbonyl-L-glutaminyl glycine and hydroxylamine as substrates in the absence of Ca^2+, forming an iron complex with the resulting hydroxamic acid in the presence of trichloroacetic acid, measuring absorption at 525 nm and determining the amount of hydroxamic acid by a calibration curve to calculate the activity. The BTGase activity is measured by the method described below, unless otherwise indicated.
(§2) To 0.05 ml of an enzyme solution is added 0.5 ml of Reagent A and they are mixed with each other. After reacting at 37° C. for 30 minutes, Reagent B is added thereto to discontinue the reaction and form an Fe complex. Thereafter, absorbance is measured at 525 nm. […] Separately, a calibration curve is prepared using L-glutamic acid γ-monohydroxamio acid instead of the enzyme solution, and the amount of hydroxamic acid produced is determined by the difference in absorbance described above. An enzyme activity which produces 1 μmol of hydroxamic acid per 1 minute is defined as 1 unit.
(§3) Using each BTGase, reactions of various synthetic substrates with hydroxylamine were examined. […] In this case, the concentration of various synthetic substrates is 5 mM. In the table, CBZ, Gln, Gly and Asn are abbreviations for benzyloxycarbonyl group, glutaminyl group, glycyl group and asparaginyl group, respectively.

BTG-2 [2] = target: T2, BTG-2 (Streptomyces griseocarneus, UniProt A0ABX7RSJ1); assay: as above; format: biochemical, Streptoverticillium griseocarneum IFO 12776
T2 construct: Ca2+-independent; made as pre-pro-protein
Method: as §1, §2, §3

BTG-3 [3] = target: T3, BTG-3 (Streptomyces cinnamoneus, UniProt Q8GR90); assay: as above; format: biochemical
T3 construct: Ca2+-independent; made as pre-pro-protein
T3 sequence (Q8GR90 86-416): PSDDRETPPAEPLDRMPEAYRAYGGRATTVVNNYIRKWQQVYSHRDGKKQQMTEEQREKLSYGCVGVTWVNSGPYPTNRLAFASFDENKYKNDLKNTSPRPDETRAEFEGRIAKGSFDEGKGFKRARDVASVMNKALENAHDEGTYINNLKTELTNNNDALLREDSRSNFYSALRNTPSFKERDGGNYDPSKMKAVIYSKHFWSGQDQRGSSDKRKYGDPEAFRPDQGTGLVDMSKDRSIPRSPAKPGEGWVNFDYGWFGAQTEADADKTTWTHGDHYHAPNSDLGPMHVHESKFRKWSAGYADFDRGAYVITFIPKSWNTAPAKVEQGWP
Method: as §1, §2, §3

[4] = target: T4, MTGase (transglutaminase of guinea pig liver) (UniProt P08587); assay: Substrate specificity: synthetic substrates; format: biochemical; settings: Table 4
T4 construct: from tissue; host or cells: guinea pig liver
T4 sequence (P08587 1-690): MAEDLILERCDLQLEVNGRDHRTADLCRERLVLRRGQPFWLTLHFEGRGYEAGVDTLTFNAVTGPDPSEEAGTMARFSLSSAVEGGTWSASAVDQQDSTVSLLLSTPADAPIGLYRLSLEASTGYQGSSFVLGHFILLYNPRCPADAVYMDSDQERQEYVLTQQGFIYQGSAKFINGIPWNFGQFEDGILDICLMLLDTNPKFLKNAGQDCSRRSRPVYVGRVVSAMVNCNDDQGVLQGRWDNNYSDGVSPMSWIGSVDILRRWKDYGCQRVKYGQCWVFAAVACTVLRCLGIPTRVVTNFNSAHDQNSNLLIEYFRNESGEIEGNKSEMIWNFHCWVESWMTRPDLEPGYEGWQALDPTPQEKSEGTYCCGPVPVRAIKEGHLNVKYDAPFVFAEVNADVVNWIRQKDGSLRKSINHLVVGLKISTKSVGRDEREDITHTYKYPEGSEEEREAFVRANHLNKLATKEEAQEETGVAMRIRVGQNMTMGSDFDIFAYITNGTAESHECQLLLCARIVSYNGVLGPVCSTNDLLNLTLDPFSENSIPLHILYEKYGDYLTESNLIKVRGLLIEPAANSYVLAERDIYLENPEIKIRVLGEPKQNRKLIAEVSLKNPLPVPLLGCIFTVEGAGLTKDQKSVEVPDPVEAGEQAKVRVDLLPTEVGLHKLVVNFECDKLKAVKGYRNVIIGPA
Method: Next, properties of BTGases are compared to those of guinea pig liver-derived transglutaminase. The guinea pig liver-derived transglutaminase was prepared by the method described in Published Unexamined Japanese Patent Application No. 149645/83. As will be apparent from Tables 4 and 5, various differences in enzymological properties are noted between transglutaminase of guinea pig liver (hereafter referred to as MTGase) which has been mainly investigated heretofore and BTGases derived from actinomycetes; in particular, differences are noted in temperature stability, molecular weight, isoelectric point and substrate specificity. Further, a difference is noted in that the BTGases of the present invention act in the presence and absence of Ca^2+. Therefore, the respective enzymes of the present invention are different from MTGase in their properties.

BTGase = assay: Substrate specificity, statement on all BTGases; format: biochemical, Streptoverticillium; settings: substrate 5 mM, with hydroxylamine
Method: as §3

BTG-1 [5] = target: T1, BTG-1; assay: Influence of metal ions on activity; format: biochemical, Streptoverticillium mobaraense IFO 13819; settings: metal ion 1 mM; None = 100; 30 min
Method: as §1, §2

BTG-2 [6] = target: T2, BTG-2; format: biochemical, Streptoverticillium griseocarneum IFO 12776; settings: metal ion 1 mM; None = 100; 30 min
Method: as §1, §2

BTG-3 [7] = target: T3, BTG-3; assay: Influence of metal ions on activity; format: biochemical; settings: metal ion 1 mM; None = 100; 30 min
Method: as §1, §2

all BTGases [8] = assay: Influence of metal ions, statement on all BTGases; format: biochemical, Streptoverticillium; settings: metal ion 1 mM
Description: In all BTGases, the activity is inhibited by Cu^2+ and Zn^2+.

BTG-1 [9] = target: T1, BTG-1; assay: biochemical; parameters: species or system Streptoverticillium mobaraense IFO 13819; settings: for inhibition at 1000 µM: read-out: BTG-1 (%) activity with inhibitor
Method: as §1, §2

BTG-2 [10] = target: T2, BTG-2; assay: biochemical; parameters: species or system Streptoverticillium griseocarneum IFO 12776; settings: for inhibition at 1000 µM: read-out: BTG-2 (%) activity with inhibitor
Method: as §1, §2

BTG-3 [11] = target: T3, BTG-3; assay: biochemical; settings: for inhibition at 1000 µM: read-out: BTG-3 (%) activity with inhibitor
Method: as §1, §2

all BTGases [12] = test system: all BTGases
[13] = Activity of the enzymes without added Ca2+; format: biochemical; settings: no CaCl2 added (Table 5)
Method: as §1

Optimum pH = format: biochemical; settings: 37° C. for 10 minutes
pH stability = format: physicochemical; settings: treatment at 37° C. for 10 minutes
Temperature stability = format: physicochemical; settings: pH 7 for 10 minutes
[14] = substrate 5 mM, with hydroxylamine
[15] = inhibitor 1 mM, 25° C. for 30 minutes, None = 100
[16] = inhibitor 1 mM, 25° C. for 30 minutes

What does the source list for `NC(=O)CC[C@H](NC(=O)OCc1ccccc1)C(=O)NCC(=O)O` [CBZ--Gln--Gly, benzyloxycarbonylglutaminyl glycine] (Cbz-Gln-Gly-OH)?
Substrate specificity (%) BTG-1 (BTG-1 [1]; Table 4): 100%; Reactivity of substrate with BTG-1 (relative, Table 1) (BTG-1 [1]; [14]): 100; Substrate specificity (%) BTG-2 (BTG-2 [2]; Table 4): 100%; Reactivity of substrate with BTG-2 (relative, Table 1) (BTG-2 [2]; [14]): 100; Substrate specificity (%) BTG-3 (BTG-3 [3]; Table 4): 100%; Reactivity of substrate with BTG-3 (relative, Table 1) (BTG-3 [3]; [14]): 100; Substrate specificity (%) MTGase [4]: 100%; Reactivity of synthetic substrate with the BTGases (in words) (BTGase): reactivity is the highest

With `[Cl][Cu][Cl]` [CuCl2] as the molecule, how does the “BTG-1 (%) activity with metal ion” value (BTG-1 [5]) read?
The value was 79%.

What about the “BTG-2 (%) activity with metal ion” value (BTG-2 [6]) of the same molecule?
The value was 82%.

What about the “BTG-3 (%) activity with metal ion” value (BTG-3 [7]) of the same molecule?
Its value is 86%.

And the “Effect of metal ion on activity of all BTGases (in words)” value (all BTGases [8])?
The value was “inhibited”.

Which inhibition at 1000 µM (BTG-1 [9]) does the source give for `O=C(O)CI` [Monoiodoacetic acid] here?
The inhibition at 1000 µM was 64%.

And the inhibition at 1000 µM (BTG-2 [10])?
Its inhibition at 1000 µM is 50%.

And the inhibition at 1000 µM (BTG-3 [11])?
The inhibition at 1000 µM was 67%.

And the “Effect of inhibitor on activity of all BTGases (in words)” value (all BTGases [12])?
The value was “inhibited”.

With `CCN1C(=O)C=CC1=O` [NEM, N-ethylmaleimide] as the molecule, how does the inhibition at 1000 µM (BTG-1 [9]; [15]) read?
Its inhibition at 1000 µM is 5%.

What about the inhibition at 1000 µM (BTG-2 [10]) of the same molecule?
The inhibition at 1000 µM was 5%.

What about the inhibition at 1000 µM (BTG-3 [11]; [15]) of the same molecule?
The inhibition at 1000 µM was 3%.

What about the “Effect of inhibitor on activity of all BTGases (in words)” value (all BTGases [12]; [16]) of the same molecule?
The value was “inhibited”.

What does the source list for `O=C(O)c1cc[c]([Hg][Cl])cc1` [PCMB, p-chloromercury benzoic acid]?
BTG-1 (%) activity with inhibitor (BTG-1 [9]; [15]): 54%; BTG-2 (%) activity with inhibitor (BTG-2 [10]; [15]): 61%; BTG-3 (%) activity with inhibitor (BTG-3 [11]; [15]): 63%; Effect of inhibitor on activity of all BTGases (in words) (all BTGases [12]; [16]): inhibited

With `[Cl-].[Cl-].[Zn+2]` [ZnCl2] as the molecule, how does the “BTG-1 (%) activity with metal ion” value (BTG-1 [5]) read?
The value was 15%.

And the “BTG-2 (%) activity with metal ion” value (BTG-2 [6])?
Its value is 24%.

And the “BTG-3 (%) activity with metal ion” value (BTG-3 [7])?
Its value is 24%.

And the “Effect of metal ion on activity of all BTGases (in words)” value (all BTGases [8])?
Its value is “inhibited”.

B1: BTG-1: transglutaminase of Streptoverticillium mobaraense IFO 13819 (protein, UniProt P81453 77-407, looked up)
Protein-glutamine …: DSDDRVTPPAEPLDRMPDPYRPSYGRAETVVNNYIRKWQQVYSHRDGRKQQMTEEQREWLSYGCVGVTWVNSGQYPTNRLAFASFDEDRFKNELKNGRPRSGETRAEFEGRVAKESFDEEKGFQRAREVASVMNRALENAHDESAYLDNLKKELANGNDALRNEDARSPFYSALRNTPSFKERNGGNHDPSRMKAVIYSKHFWSGQDRSSSADKRKYGDPDAFRPAPGTGLVDMSRDRNIPRSPTSPGEGFVNFDYGWFGAQTEADADKTVWTHGNHYHAPNGSLGAMHVYESKFRNWSEGYSDFDRGAYVITFIPKSWNTAPDKVKQGWP
Which “Activity (%) of the enzyme, metal ion: None” value [13] does the source give for B1 here?
Its value is 99%.

What about the “Optimum pH” value (Optimum pH) of the same molecule?
The value was 6-7.

And the “pH Stability (stable pH range)” value (pH stability)?
The value was 5-9.

What about the “Temperature stability (%), 40° C. residual rate” value (Temperature stability; 40° C.) of the same molecule?
Its value is 88%.

And the “Temperature stability (%), 50° C. residual rate” value (Temperature stability; 50° C.)?
Its value is 74%.
